From PubChem BioAssay AID248 (DTP/NCI, 2004)
“And” between values parts separate entries of the source, which are not always exact repeats. Equal values may be shown once. Toxic doses and inconclusive results are not listed.

System: L1210 leukemia ip in BDF1 mice, survival T/C
Assay: NCI In Vivo Anticancer Drug Screen. Data for tumor model L1210 Leukemia (intraperitoneal) in B6D2F1 (BDF1) mice
Conditions: endpoint: mean survival time, higher = longer survival
In short: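 Transplantable tumor model; survival measured in treated vs vehicle control mice. Value = treated/control.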

[1] = dose: 400.0 mg/kg/injection, schedule: Q01DX001 (ip), vehicle: saline
[2] = dose: 75.0 mg/kg/injection, schedule: Q01DX001 (ip), vehicle: other
[3] = dose: 150.0 mg/kg/injection, schedule: Q01DX001 (ip), vehicle: other
[4] = dose: 100.0 mg/kg/injection, schedule: Q04DX002 (ip), vehicle: Klucel (hydroxypropylcellulose) (HPC)
[5] = dose: 200.0 mg/kg/injection, schedule: Q04DX002 (ip), vehicle: Klucel (hydroxypropylcellulose) (HPC)
[6] = dose: 400.0 mg/kg/injection, schedule: Q04DX002 (ip), vehicle: Klucel (hydroxypropylcellulose) (HPC)
[7] = dose: 100.0 mg/kg/injection, schedule: Q04DX003 (ip), vehicle: saline with Tween-80
[8] = dose: 200.0 mg/kg/injection, schedule: Q04DX003 (ip), vehicle: saline with Tween-80
[9] = dose: 400.0 mg/kg/injection, schedule: Q04DX003 (ip), vehicle: saline with Tween-80
[10] = dose: 100.0 mg/kg/injection, schedule: Q01DX001 (ip), vehicle: saline
[11] = dose: 200.0 mg/kg/injection, schedule: Q01DX001 (ip), vehicle: saline

CCN(CC)CCNc1ccc(C)c2sc3ccccc3c(=O)c12 (tested in a mixture with another compound) was tested, and the T/C (dose: 6.0 mg/kg/injection, schedule: Q01DX009 (ip), vehicle: carboxymethylcellulose (CMC)) was 102 % of control, the T/C (dose: 12.0 mg/kg/injection, schedule: Q01DX009 (ip), vehicle: carboxymethylcellulose (CMC)) was 98 % of control and the T/C (dose: 17.0 mg/kg/injection, schedule: Q01DX015 (ip), vehicle: saline) was 102 % of control. The T/C (dose: 25.0 mg/kg/injection, schedule: Q01DX009 (ip), vehicle: carboxymethylcellulose (CMC)) was 109 % of control, the T/C (dose: 26.0 mg/kg/injection, schedule: Q01DX015 (ip), vehicle: carboxymethylcellulose (CMC)) was 108 % of control and the T/C (dose: 26.0 mg/kg/injection, schedule: Q01DX015 (ip), vehicle: saline) was 101 % of control. For the same compound, the T/C (dose: 35.0 mg/kg/injection, schedule: Q01DX009 (ip), vehicle: saline) was 102 % of control, the T/C (dose: 39.0 mg/kg/injection, schedule: Q01DX015 (ip), vehicle: carboxymethylcellulose (CMC)) was 110 % of control and the T/C (dose: 40.0 mg/kg/injection, schedule: Q01DX015 (ip), vehicle: saline) was 113 % of control and 118 % of control. The T/C (dose: 59.0 mg/kg/injection, schedule: Q01DX015 (ip), vehicle: carboxymethylcellulose (CMC)) was 116 % of control, the T/C (dose: 75.0 mg/kg/injection, schedule: Q01DX009 (ip), vehicle: saline) was 104 % of control and the T/C (dose: 89.0 mg/kg/injection, schedule: Q01DX015 (ip), vehicle: saline) was 202 % of control. The T/C (dose: 133.0 mg/kg/injection, schedule: Q01DX009 (ip), vehicle: carboxymethylcellulose (CMC)) was 123 % of control, the T/C (dose: 175.0 mg/kg/injection, schedule: Q01DX001 (ip), vehicle: saline) was 100 % of control and the T/C (dose: 200.0 mg/kg/injection, schedule: Q01DX015 (ip), vehicle: saline) was 112 % of control. For the same compound, the T/C (dose: 265.0 mg/kg/injection, schedule: Q01DX001 (ip), vehicle: saline) was 105 % of control, the T/C (dose: 300.0 mg/kg/injection, schedule: Q01DX015 (ip), vehicle: carboxymethylcellulose (CMC)) was 91 % of control and the T/C [1] was 122 % of control.

With N#Cc1ccccc1N=NNc1ccccc1C#N the T/C (dose: 6.25 mg/kg/injection, schedule: Q01DX009 (ip), vehicle: Klucel (hydroxypropylcellulose) (HPC)) was 112 % of control, the T/C (dose: 12.5 mg/kg/injection, schedule: Q01DX009 (ip), vehicle: Klucel (hydroxypropylcellulose) (HPC)) was 112 % of control and the T/C (dose: 25.0 mg/kg/injection, schedule: Q01DX009 (ip), vehicle: Klucel (hydroxypropylcellulose) (HPC)) was 115 % of control. For the same compound, the T/C [2] was 96 % of control and the T/C [3] was 92 % of control.

In the case of CNC(=O)C1C(c2ccccc2)C1c1ccccc1 (stereo not given), the T/C [4] is reported as 102 % of control, the T/C [5] is reported as 97 % of control and the T/C [6] is reported as 94 % of control.

With COC(=O)C1=C(C)NC(=O)NC1c1ccccc1 (stereo not given) the T/C [7] was 105 % of control, the T/C [8] was 97 % of control and the T/C [9] was 100 % of control.

CC(C)C(NC(=O)OCc1ccccc1)C(=O)OCc1ccc([N+](=O)[O-])cc1 (stereo not given) was tested, and the T/C (dose: 100.0 mg/kg/injection, schedule: Q01DX001 (ip), vehicle: other) was 90 % of control, the T/C (dose: 200.0 mg/kg/injection, schedule: Q01DX001 (ip), vehicle: other) was 94 % of control and the T/C (dose: 400.0 mg/kg/injection, schedule: Q01DX001 (ip), vehicle: other) was 90 % of control.

In the case of NCCCC(NC(=O)CCCCCCCCN=C(N)N)C(O)CCCCCCCCN=C(N)N (stereo not given), the T/C (dose: 0.38 mg/kg/injection, schedule: Q01DX Z (ip), vehicle: carboxymethylcellulose (CMC)) is reported as 102 % of control, the T/C (dose: 0.75 mg/kg/injection, schedule: Q01DX Z (ip), vehicle: carboxymethylcellulose (CMC)) is reported as 94 % of control and the T/C (dose: 1.5 mg/kg/injection, schedule: Q01DX Z (ip), vehicle: carboxymethylcellulose (CMC)) is reported as 96 % of control. The T/C (dose: 3.0 mg/kg/injection, schedule: Q01DX Z (ip), vehicle: carboxymethylcellulose (CMC)) was 107 % of control, the T/C (dose: 5.0 mg/kg/injection, schedule: Q01DX001 (ip), vehicle: carboxymethylcellulose (CMC)) was 94 % of control and the T/C (dose: 6.0 mg/kg/injection, schedule: Q01DX Z (ip), vehicle: carboxymethylcellulose (CMC)) was 121 % of control. The T/C (dose: 10.0 mg/kg/injection, schedule: Q01DX001 (ip), vehicle: carboxymethylcellulose (CMC)) was 100 % of control and the T/C (dose: 20.0 mg/kg/injection, schedule: Q01DX001 (ip), vehicle: carboxymethylcellulose (CMC)) was 103 % of control.

CC(=O)Nc1ccc2c(c1)C(C)c1ccccc1-2 (stereo not given) was tested, and the T/C (dose: 100.0 mg/kg/injection, schedule: Q01DX001 (ip), vehicle: carboxymethylcellulose (CMC)) was 89 % of control, the T/C (dose: 200.0 mg/kg/injection, schedule: Q01DX001 (ip), vehicle: carboxymethylcellulose (CMC)) was 95 % of control and the T/C (dose: 400.0 mg/kg/injection, schedule: Q01DX001 (ip), vehicle: carboxymethylcellulose (CMC)) was 93 % of control.

For CSc1cc(N)nc2c1ncn2C1OC(CO)C(O)C1O (stereo not given), the T/C [10] was 113 % of control, the T/C [11] was 93 % of control and the T/C [1] was 103 % of control.

O=P(O)(CCP(=O)(O)c1ccccc1)c1ccccc1 was tested, and the T/C [4] was 95 % of control, the T/C [5] was 91 % of control and the T/C [6] was 106 % of control.

O=C(Nc1ccc(C2=NCCN2)cc1)c1cc(C(=O)Nc2ccc(C3=NCCN3)cc2)cc(C(=O)Nc2ccc(C3=NCCN3)cc2)c1 was tested, and the T/C (dose: 4.3 mg/kg/injection, schedule: Q01DX Z (ip), vehicle: saline) was 95 % of control, the T/C (dose: 6.4 mg/kg/injection, schedule: Q01DX Z (ip), vehicle: saline) was 93 % of control and the T/C (dose: 9.7 mg/kg/injection, schedule: Q01DX Z (ip), vehicle: saline) was 97 % of control and 92 % of control. The T/C (dose: 15.0 mg/kg/injection, schedule: Q01DX Z (ip), vehicle: saline) was 92 % of control, the T/C (dose: 22.0 mg/kg/injection, schedule: Q01DX Z (ip), vehicle: saline) was 88 % of control and the T/C (dose: 33.0 mg/kg/injection, schedule: Q01DX Z (ip), vehicle: saline) was 97 % of control. For the same compound, the T/C (dose: 111.0 mg/kg/injection, schedule: Q01DX Z (ip), vehicle: saline) was 93 % of control, the T/C (dose: 166.0 mg/kg/injection, schedule: Q01DX Z (ip), vehicle: saline) was 90 % of control and the T/C (dose: 250.0 mg/kg/injection, schedule: Q01DX Z (ip), vehicle: saline) was 87 % of control. For the same compound, the T/C (dose: 375.0 mg/kg/injection, schedule: Q01DX Z (ip), vehicle: saline) was 88 % of control.

O=C(O)CCCCCCC1CCCC1=O (stereo not given) was tested, and the T/C (dose: 100.0 mg/kg/injection, schedule: Q01DX009 (ip), vehicle: saline sonified) was 97 % of control, the T/C (dose: 200.0 mg/kg/injection, schedule: Q01DX009 (ip), vehicle: saline sonified) was 91 % of control and the T/C (dose: 400.0 mg/kg/injection, schedule: Q01DX009 (ip), vehicle: saline sonified) was 97 % of control.

With S=C1SCN(c2ccccc2)CN1c1ccccc1 the T/C [7] was 88 % of control and the T/C [8] was 88 % of control.

For c1ccc(P(=NC2CCCC2)(c2ccccc2)c2ccccc2)cc1, the T/C [7] was 89 % of control, the T/C [8] was 92 % of control and the T/C [9] was 87 % of control.

In the case of CCC1CC2CN3CCc4c([nH]c5ccccc45)C(C(=O)OC)(C2)C13 (stereo not given), the T/C [2] is reported as 96 % of control and the T/C [3] is reported as 105 % of control.

With O=C1NC(=O)C(c2ccccc2)(C2CC2)N1 (stereo not given) the T/C (dose: 50.0 mg/kg/injection, schedule: Q04DX003 (ip), vehicle: Klucel (hydroxypropylcellulose) (HPC)) was 107 % of control, the T/C [10] was 93 % of control and the T/C (dose: 100.0 mg/kg/injection, schedule: Q04DX003 (ip), vehicle: Klucel (hydroxypropylcellulose) (HPC)) was 95 % of control. The T/C [11] was 93 % of control, the T/C (dose: 200.0 mg/kg/injection, schedule: Q04DX003 (ip), vehicle: Klucel (hydroxypropylcellulose) (HPC)) was 101 % of control and the T/C [1] was 98 % of control.

For O=C(O)c1c(Cl)nsc1Cl, the T/C (dose: 100.0 mg/kg/injection, schedule: Q01DX009 (ip), vehicle: Klucel (hydroxypropylcellulose) (HPC)) was 98 % of control and the T/C (dose: 200.0 mg/kg/injection, schedule: Q01DX009 (ip), vehicle: Klucel (hydroxypropylcellulose) (HPC)) was 98 % of control.

With CC(=O)Nc1ccc(C(=O)O)c(O)c1 the T/C (dose: 50.0 mg/kg/injection, schedule: Q04DX003 (ip), vehicle: saline) was 113 % of control, the T/C (dose: 100.0 mg/kg/injection, schedule: Q04DX003 (ip), vehicle: saline) was 108 % of control and the T/C (dose: 200.0 mg/kg/injection, schedule: Q04DX003 (ip), vehicle: saline) was 105 % of control.
